TGI data for seven molecules are collected here from PubChem BioAssay (NCI).

Test systems include UO-31 renal; SF-539 CNS; U251 CNS; T-47D breast; NCI-H460 lung; SW-620 colon; NCI/ADR-RES ovarian; OVCAR-5 ovarian; SN12C renal; SR leukemia; SF-268 CNS; UACC-62 melanoma; ACHN renal; MCF7 breast; SNB-19 CNS; M14 melanoma; DU-145 prostate; NCI-H522 lung; NCI-H226 lung; A498 renal.
Experiment in all cases: NCI-60 cell line screen, 48 h

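1) Cells in 96-well plates. 2) Compound, 48 h, 5 concentrations. 3) Linear interpolation between surrounding doses. 4) Unreached endpoint = highest concentration. TGI marks complete inhibition of growth.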

Regarding `Cc1cc(C)c2c(n1)S(=O)(=O)N(CCCN1CCN(c3cccc(C(F)(F)F)c3)CC1)c1c-2nn(C)c1C`, the TGI with UO-31 renal, in the assay with SF-539 CNS, in the assay on U251 CNS, in the assay with T-47D breast, in the assay with NCI-H460 lung and in the assay with SW-620 colon was greater than 100 µM each time. The TGI in the assay with NCI/ADR-RES ovarian is greater than 100 µM; in the assay with OVCAR-5 ovarian, greater than 100 µM; in the assay on SN12C renal, greater than 100 µM; in the assay on SR leukemia, 62 µM; with SF-268 CNS, greater than 100 µM; with UACC-62 melanoma it was greater than 100 µM. Also, the TGI with ACHN renal, with MCF7 breast, with SNB-19 CNS, with M14 melanoma, in the assay on DU-145 prostate and in the assay on NCI-H522 lung was greater than 100 µM in each case. Also, the TGI in the assay on NCI-H226 lung and with A498 renal was greater than 100 µM throughout.
Regarding `COc1ccc(C(SCCO)(c2ccccc2)c2ccccc2)cc1`, the TGI in the assay on UO-31 renal was determined as 28.1 µM; in the assay with SF-539 CNS it was 30.2 µM; in the assay on U251 CNS, 25.9 µM; in the assay on T-47D breast it was 27 µM; with NCI-H460 lung, 27.5 µM; with SW-620 colon it was 81.8 µM. Moreover, the TGI in the assay on NCI/ADR-RES ovarian was 34.2 µM; in the assay on OVCAR-5 ovarian, 36.4 µM; in the assay with SN12C renal, 28.4 µM; with SR leukemia, greater than 100 µM; in the assay with SF-268 CNS, 31.7 µM; in the assay with UACC-62 melanoma, 28.1 µM. For the same molecule, the TGI with ACHN renal worked out at 27.3 µM; with MCF7 breast it was 25 µM; in the assay with SNB-19 CNS it was 29.1 µM; in the assay with M14 melanoma, 21.3 µM; in the assay on DU-145 prostate it was 27 µM; in the assay on NCI-H522 lung it was 34.4 µM. The TGI in the assay with NCI-H226 lung turned out to be 30.2 µM; in the assay on A498 renal, 33.3 µM.
For `COc1ccc2oc(OC)c(CC=C(C)C)c(=O)c2c1C`, the TGI with UO-31 renal, with SF-539 CNS, with U251 CNS, in the assay with T-47D breast, in the assay with NCI-H460 lung and in the assay on SW-620 colon was greater than 100 µM each time. For the same molecule, the TGI in the assay on NCI/ADR-RES ovarian, in the assay with OVCAR-5 ovarian, with SN12C renal, in the assay with SR leukemia, with SF-268 CNS and in the assay on UACC-62 melanoma was greater than 100 µM throughout. The TGI with ACHN renal, with MCF7 breast, with SNB-19 CNS, with M14 melanoma, in the assay on DU-145 prostate and with NCI-H522 lung was greater than 100 µM in each case. Moreover, the TGI with NCI-H226 lung and in the assay with A498 renal was greater than 100 µM each time.
Regarding `CC(=O)O[C@@H]1C2=C(C)C=C(O2)[C@H]2O[C@]2(C)C[C@H]2C=C(C(=O)O2)[C@H](OC(C)=O)CC1[C@@]1(C)CO1` (stereo not given in full), the TGI was 51.4 µM in the assay with UO-31 renal; 83.4 µM in the assay with SF-539 CNS; 40.1 µM in the assay on U251 CNS; 39.7 µM in the assay with T-47D breast; greater than 100 µM in the assay on NCI-H460 lung; 26.1 µM with SW-620 colon. For the same molecule, the TGI in the assay with NCI/ADR-RES ovarian is greater than 100 µM; with OVCAR-5 ovarian, 76.8 µM; in the assay with SN12C renal, 69.8 µM; in the assay on SR leukemia it was 47.5 µM; in the assay with SF-268 CNS, greater than 100 µM; in the assay on UACC-62 melanoma, 56.3 µM. Also, the TGI in the assay with ACHN renal was 61.6 µM; in the assay with MCF7 breast it was 44.8 µM; in the assay on SNB-19 CNS, greater than 100 µM; with M14 melanoma it was 64.2 µM; in the assay on DU-145 prostate, greater than 100 µM; in the assay with NCI-H522 lung, 12.5 µM. In addition, the TGI in the assay on NCI-H226 lung and in the assay on A498 renal was greater than 100 µM each time.
`COC(=O)C1CCC(=O)N1C(c1ccc(OC)cc1)c1ccc(OC)cc1` (stereo not given): the TGI with UO-31 renal, in the assay on SF-539 CNS, in the assay on U251 CNS, in the assay with T-47D breast, in the assay with NCI-H460 lung and in the assay with SW-620 colon was greater than 100 µM in each case. Also, the TGI in the assay on NCI/ADR-RES ovarian, with OVCAR-5 ovarian, with SN12C renal, with SR leukemia, with SF-268 CNS and with UACC-62 melanoma was greater than 100 µM in each case. The TGI in the assay with ACHN renal, in the assay on MCF7 breast, with SNB-19 CNS, in the assay with M14 melanoma, in the assay with DU-145 prostate and with NCI-H522 lung was greater than 100 µM each time. In addition, the TGI with NCI-H226 lung and in the assay with A498 renal was greater than 100 µM each time.
As for `Cc1noc2nnn(-c3ccc(Cl)cc3)c(=O)c12`, the TGI amounted to 8.63 µM with UO-31 renal; 1.73 µM in the assay with SF-539 CNS; 17.7 µM in the assay on U251 CNS; 10.8 µM in the assay on T-47D breast; 21.3 µM in the assay with NCI-H460 lung; 5.41 µM with SW-620 colon. In addition, the TGI with NCI/ADR-RES ovarian is 29.8 µM; in the assay with OVCAR-5 ovarian, 20 µM; in the assay with SN12C renal, 12.2 µM; in the assay on SR leukemia it was 3.78 µM; with SF-268 CNS, 22.1 µM; with UACC-62 melanoma it was 17.8 µM. Besides, the TGI in the assay on ACHN renal was determined as 15.1 µM; in the assay with MCF7 breast, 13.6 µM; in the assay with SNB-19 CNS it was 26.1 µM; in the assay on M14 melanoma, 25.4 µM; with DU-145 prostate it was 14.3 µM; with NCI-H522 lung, 2.24 µM. The results for the TGI with NCI-H226 lung and in the assay with A498 renal were 9.83 µM and 27.1 µM, respectively.
Turning to `CCOC(=O)c1ccc(C(=O)/C(C(C)=O)=C2\CCCN2C)n1C`, the TGI in the assay on UO-31 renal was greater than 100 µM; with SF-539 CNS, 22.8 µM; in the assay on U251 CNS it was greater than 100 µM; in the assay with T-47D breast it was 92 µM; in the assay with NCI-H460 lung, greater than 100 µM; in the assay with SW-620 colon, greater than 100 µM. Also, the TGI in the assay with NCI/ADR-RES ovarian is greater than 100 µM; in the assay on OVCAR-5 ovarian, greater than 100 µM; with SN12C renal, greater than 100 µM; in the assay on SR leukemia it was 98.9 µM; in the assay with SF-268 CNS, greater than 100 µM; in the assay on UACC-62 melanoma, greater than 100 µM. Further, the TGI in the assay on ACHN renal, in the assay with MCF7 breast, in the assay with SNB-19 CNS, in the assay on M14 melanoma, with DU-145 prostate and in the assay on NCI-H522 lung was greater than 100 µM each time. Moreover, the TGI in the assay on NCI-H226 lung and with A498 renal was greater than 100 µM in each case.
